From ChEMBL document CHEMBL1157244, “Triterpenoid saponins from the fruits of Caryocar glabrum” (J Nat Prod, 2006)

How the values were obtained:
[1] = Toxicity in sheep erythrocytes assessed as hemolysis; format: cell-based, Ovis aries, Erythrocyte; conditions: for HD100: erythrocyte; for HC50: sheep erythrocytes, read-out: HD50 (the source's name)
[2] = Toxicity in sheep erythrocytes assessed as hemolysis at >500 ug/mL; format: cell-based, Ovis aries, Erythrocyte; conditions: read-out: Activity

COC(=O)[C@H]1O[C@@H](O[C@H]2[C@@H](O)C[C@]3(C)[C@H]4CC=C5[C@@H]6CC(C)(C)CC[C@]6(C(=O)O)CC[C@@]5(C)[C@]4(C)CC[C@H]3C2(C)C)[C@H](O)[C@@H](O[C@@H]2O[C@H](CO)[C@H](O)[C@H](O)[C@H]2O)[C@@H]1O
HD100 [1]: 303 µM
HC50 [1]: 157 µM

CC1(C)CC[C@]2(C(=O)O)CC[C@]3(C)C(=CC[C@@H]4[C@@]5(C)CC[C@H](O[C@@H]6O[C@H](C(=O)O)[C@@H](O)[C@H](O)[C@H]6O)[C@@](C)(CO)C5CC[C@]43C)[C@@H]2C1 (stereo not given in full)
HD100 [1]: 116 µM
HC50 [1]: 93 µM

CC1(C)CC[C@]2(C(=O)O)CC[C@]3(C)C(=CC[C@@H]4[C@@]5(C)CC[C@H](O[C@@H]6O[C@H](C(=O)O)[C@@H](O)[C@H](O[C@@H]7O[C@H](CO)[C@H](O)[C@H](O)[C@H]7O)[C@H]6O)[C@@](C)(CO)[C@@H]5CC[C@]43C)[C@@H]2C1
HD100 [1]: 93 µM
HC50 [1]: 45 µM

CC1(C)CC[C@]2(C(=O)O[C@@H]3O[C@H](CO)[C@@H](O)[C@H](O)[C@H]3O)CC[C@]3(C)C(=CC[C@@H]4[C@@]5(C)C[C@H](O)[C@H](O[C@@H]6O[C@H](CO)[C@@H](O)[C@H](O[C@@H]7O[C@H](CO)[C@H](O)[C@H](O)[C@H]7O)[C@H]6O)[C@@](C)(CO)[C@@H]5CC[C@]43C)[C@@H]2C1
HD100 [1]: > 513 µM
hemolysis [2]: 10%

CC1(C)CC[C@]2(C(=O)O[C@@H]3O[C@H](CO)[C@@H](O)[C@H](O)[C@H]3O)CC[C@]3(C)C(=CC[C@@H]4[C@@]5(C)CC[C@H](O[C@@H]6O[C@H](C(=O)O)[C@@H](O)[C@H](O[C@@H]7O[C@H](CO)[C@H](O)[C@H](O)[C@H]7O)[C@H]6O)[C@@](C)(CO)[C@@H]5CC[C@]43C)[C@@H]2C1
HD100 [1]: 514 µM
HC50 [1]: 309 µM

CC1(C)CC[C@]2(C(=O)O)CC[C@]3(C)C(=CC[C@@H]4[C@@]5(C)C[C@H](O)[C@H](O[C@@H]6O[C@H](C(=O)O)[C@@H](O)[C@H](O[C@@H]7O[C@H](CO)[C@H](O)[C@H](O)[C@H]7O)[C@H]6O)[C@@](C)(CO)[C@@H]5CC[C@]43C)[C@@H]2C1
HD100 [1]: 121 µM
HC50 [1]: 66 µM

CC1(C)CC[C@]2(C(=O)O)CC[C@]3(C)C(=CC[C@@H]4[C@@]5(C)C[C@H](O)[C@H](O[C@@H]6O[C@H](CO)[C@@H](O)[C@H](O[C@@H]7O[C@H](CO)[C@H](O)[C@H](O)[C@H]7O)[C@H]6O)[C@@](C)(CO)[C@@H]5CC[C@]43C)[C@@H]2C1
HD100 [1]: 24 µM
HC50 [1]: 18 µM

CC1(C)CC[C@]2(C(=O)O)CC[C@]3(C)C(=CC[C@@H]4[C@@]5(C)CC[C@H](O[C@@H]6O[C@H](CO)[C@@H](O)[C@H](O[C@@H]7O[C@H](CO)[C@H](O)[C@H](O)[C@H]7O)[C@H]6O)[C@@](C)(CO)[C@@H]5CC[C@]43C)[C@@H]2C1
HD100 [1]: 94 µM
HC50 [1]: 56 µM

CC1(C)CC[C@]2(C(=O)O)CC[C@]3(C)C(=CC[C@@H]4[C@@]5(C)C[C@H](O)[C@H](O[C@@H]6O[C@H](C(=O)O)[C@@H](O)[C@H](O[C@@H]7O[C@H](CO)[C@H](O)[C@H](O)[C@H]7O)[C@H]6O)C(C)(C)[C@@H]5CC[C@]43C)[C@@H]2C1
HD100 [1]: 49 µM
HC50 [1]: 32 µM

CC1(C)CC[C@]2(C(=O)O)CC[C@]3(C)C(=CC[C@@H]4[C@@]5(C)CC[C@H](O[C@@H]6O[C@H](C(=O)O)[C@@H](O)[C@H](O[C@@H]7O[C@H](CO)[C@H](O)[C@H](O)[C@H]7O)[C@H]6O)C(C)(C)[C@@H]5CC[C@]43C)[C@@H]2C1 [GLYCOSIDE D]
HD100 [1]: 31 µM
HC50 [1]: 19 µM
